{"source": "patent US20130202594A1", "about": "“ALK1 Antagonists and Their Uses in Treating Renal Cell Carcinoma” (priority 2012, published 2013)", "key": {"GDF5": {"target": "T1, GDF5 (Homo sapiens, UniProt P43026)", "T1 sequence (P43026 382-501)": "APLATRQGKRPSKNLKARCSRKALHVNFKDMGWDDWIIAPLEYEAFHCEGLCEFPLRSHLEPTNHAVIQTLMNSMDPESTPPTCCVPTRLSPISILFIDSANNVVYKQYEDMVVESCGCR", "experiment": "Biacore binding to hALK1-Fc: GDF5", "experimental": "(§1) ALK1 is a type 1 receptor for ligands of the TGFβ family. Multiple members of the TGFβ family were tested for binding to a human ALK1-Fc fusion protein, using a Biacore™ system."}, "BMP10": {"target": "T2, BMP10 (Homo sapiens, UniProt O95393)", "T2 sequence (O95393 317-424)": "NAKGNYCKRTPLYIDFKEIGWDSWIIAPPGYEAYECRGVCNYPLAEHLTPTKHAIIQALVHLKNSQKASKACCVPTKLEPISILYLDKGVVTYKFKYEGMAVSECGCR", "experiment": "Biacore binding to hALK1-Fc: BMP10", "experimental": "as §1"}, "A498 cells": {"system": "A498 cells", "experiment": "A498 human RCC tumor xenograft model", "format": "in vivo, mouse", "conditions": "for tumor growth, single agent: 10 mg/kg IP 3 times per week, vs Fc", "experimental": "(§2) A498 cells, a VHL-deficient human RCC cell line (see Iliopoulos et al., Nature Medicine 1995; 1:822-6), was obtained from the American Type Culture Collection, and cultured in Eagle's minimal essential medium. Media was supplemented with 2 mmol/L L-glutamine, 10% FCS, and 1% streptomycin (50 μg/mL), and cells were cultured at 37° C. with 5% CO2. […] cells were harvested from subconfluent cultures by a brief exposure to 0.25% trypsin and 0.02% EDTA. Trypsinization was stopped with medium containing 10% fetal bovine serum, and the cells were washed once in serum-free medium and resuspended in PBS. Only suspensions consisting of single cells with >90% viability were used for the injections.\nTo establish human RCC xenografts, A498 tumor cells were injected subcutaneously (1×10^7 cells) into the flanks of 6- to 8-week-old female athymic nude/beige mice (Charles River Laboratories) that were of 20 g average body weight. Tumors developed in >80% of the mice and were usually visible within a few days of implantation. Mice were treated with Fc or ALK-Fc when the tumors had grown to a diameter of 12 mm. ALK-Fc (10 mg/kg) was administered 3 times per week intraperitoneally. Tumors were measured daily while mice were on treatment.\nA498 cell culture and xenograft establishment was performed as described in Example 14. Mice were treated with vehicle plus Fc, sunitinib plus Fc, vehicle plus ALK-Fc, or subitinib plus ALK-Fc when the tumors had grown to a diameter of 12 mm. Sunitinib (53.6 mg/kg; Pfizer) was administered 6 of 7 days per week by gavage beginning. ALK1-Fc (10 mg/kg) was administered 3 times per week intraperitoneally. Tumors were measured daily while mice were on treatment."}, "786-0 cells": {"system": "786-0 cells", "experiment": "786-0 human RCC tumor xenograft model", "format": "in vivo, mouse", "conditions": "sunitinib 53.6 mg/kg gavage 6 of 7 days; ALK1-Fc 10 mg/kg IP 3 times per week", "experimental": "as §2, with “786-0” for “A498”, “von Hippel Lindau (VHL)-deficient” for “VHL-deficient”, “renal cell carcinoma (RCC)” for “RCC”, “RPMI 1640 medium (Cellgro).” for “Eagle's minimal essential medium.”, “serum” for “serum,”\nTo establish human RCC xenografts, 786-0 tumor cells were injected subcutaneously (1×10^7 cells) into the flanks of 6- to 8-week-old female athymic nude/beige mice (Charles River Laboratories) that were of 20 g average body weight. Tumors developed in >80% of the mice and were usually visible within a few days of implantation. Mice were treated with vehicle plus Fc, sunitinib plus Fc, vehicle plus ALK-Fc, or sunitinib plus ALK-Fc when the tumors had grown to a diameter of 12 mm. Sunitinib (53.6 mg/kg; Pfizer) was administered 6 of 7 days per week by gavage beginning. […] Tumors were measured every two days while mice were on treatment."}, "GDF11": {"target": "GDF11 (Homo sapiens, UniProt O95390)", "sequence (O95390 299-407, species assumed)": "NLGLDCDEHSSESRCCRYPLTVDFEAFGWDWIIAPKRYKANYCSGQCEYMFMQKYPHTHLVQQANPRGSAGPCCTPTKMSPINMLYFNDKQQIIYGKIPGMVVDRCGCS", "experiment": "Biacore binding to hALK1-Fc: GDF11", "experimental": "as §1"}, "[1]": {"system": "SMAD 1/5/8 phosphorylation in HUVEC cells", "experiment": "rhBMP-9 induced SMAD 1/5/8 phosphorylation in HUVEC cells", "format": "cell-based, human", "conditions": "250 ng/ml, rhBMP-9 50 ng/ml", "experimental": "Activation of SMAD phosphorylation is commonly used to assay activation of upstream activin receptors. ALK1 is known to modulate phosphorylation of SMAD proteins 1,5 and 8 upon activation by its ligand. Here, we added rhBMP-9 (50 ng/ml) to initiate SMAD phosphorylation in HUVEC cells, a human endothelial cell line which innately expresses ALK1 receptor, over a timecourse of 30 minutes. Phosphorylation of SMAD 1/5/8 was seen 5 minutes after treatment of cells with ligand and phosphorylation was maintained for the entirety of the 30 minute period."}, "ocular angiogenesis": {"system": "ocular angiogenesis", "experiment": "Mouse corneal micropocket assay", "format": "in vivo", "conditions": "intraperitoneally; identical weight/weight dosages", "description": "In preferred embodiments, an ALK1 ECD polypeptide binds to one or more of GDF5, GDF6, GDF7, BMP9 and BMP10. […] Binding may be assessed using purified proteins in solution or in a surface plasmon resonance system, such as a Biacore™ system. […] Bioassays for angiogenesis inhibitory activity include the chick chorioallantoic membrane (CAM) assay, the mouse corneal micropocket assay, or an assay known in the art for measuring the effect of administering isolated or synthesized proteins on implanted tumors. The CAM assay is described by O'Reilly, et al., in “Angiogenic Regulation of Metastatic Growth” Cell, 1994; 79 (2):315-328. Briefly, 3 day old chicken embryos with intact yolks are separated from the egg and placed in a petri dish. After 3 days of incubation, a methylcellulose disc containing the protein to be tested is applied to the CAM of individual embryos. After 48 hours of incubation, the embryos and CAMs are observed to determine whether endothelial growth has been inhibited. The mouse corneal micropocket assay involves implanting a growth factor-containing pellet, […] of capillaries that are elaborated in the cornea. Other assays are described in the Examples.\nSimilar data were obtained when a Matrigel plug impregnated with VEGF was implanted in a non-ocular location."}, "GDF8": {"target": "GDF8 (Homo sapiens, UniProt O14793)", "experiment": "Biacore binding to hALK1-Fc: GDF8", "experimental": "as §1"}}, "note": "“Also recorded” adds a separate entry of the source.", "data": [{"substance": "hALK1-Fc: extracellular domain of human ALK1 (amino acids 22-120) fused to a human IgG1 Fc with a minimal linker (SEQ ID NO:3/14)", "values": [{"measurement": "Kd", "setting": "GDF5", "value": "~50", "unit": "nM"}, {"measurement": "Kd", "setting": "BMP10", "value": "~3", "unit": "nM"}, {"measurement": "tumor growth, single agent", "setting": "A498 cells", "value": "inhibit tumor growth as a single agent"}, {"measurement": "tumor growth, single agent", "setting": "A498 cells; listed as ALK-Fc", "value": "dramatically slowed tumor growth"}, {"measurement": "effect on tumor growth inhibiting activity of sunitinib", "setting": "A498 cells; administered in combination with sunitinib", "value": "substantially increased the tumor growth inhibiting activity of sunitinib"}, {"measurement": "tumor growth", "setting": "A498 cells; combination study, sunitinib 53.6 mg/kg gavage, ALK1-Fc 10 mg/kg IP", "value": "slowed tumor growth"}, {"measurement": "tumor growth", "setting": "786-0 cells", "value": "trended toward inhibiting tumor growth as a single agent"}, {"measurement": "binding to hALK1-Fc", "setting": "GDF11", "value": "failed to show substantial binding"}, {"measurement": "SMAD 1/5/8 phosphorylation", "setting": "[1]", "value": "SMAD 1/5/8 phosphorylation was reduced"}, {"measurement": "ocular angiogenesis", "setting": "ocular angiogenesis", "value": "significantly inhibited ocular angiogenesis; also recorded: to the same degree as anti-VEGF; also recorded: comparable effects"}, {"measurement": "binding to hALK1-Fc", "setting": "GDF8", "value": "failed to show substantial binding"}]}]}
